Tests used:
[1] = biological target: GLP1R (Homo sapiens, UniProt P43220); test: Agonist activity on GLP1R/CRE-LUC HEK293 cells (luciferase reporter, ONE-Glo); format: cell-based; details: for EC50: GLP1R/CRE-LUC HEK293 cells, 6 hours incubation, chemiluminescence signal; for activity compared with comparative example compounds PF-06882961, DB02, DB03 and DB06: from Table 1, also much higher than DB04 and DB05
Procedure: Logarithmically growing GLP1R/CRE-LUC HEK293 cells (purchased from Nanjing Cobioer) were digested, the digested cells were re-suspended in a DMEM+10% FBS culture medium, and a cell density was adjusted to be 3.5*10^5/mL. The cell solution was added into a 96-well cell culture plate by 100 µL/well, and the plate was cultured overnight in an incubator (37° C., 5% CO2).
A compound was dissolved with DMSO to prepare a storage solution at an initial concentration of 10 mM, an initial concentration of the small molecular compound was 0.2 mM, and the compound was diluted by 3 times and 10 points were diluted, while the 11th point was DMSO. Another 96-well plate was taken, added with 95 μL of cell culture solution (DMEM+10% FBS) in each well, then added with 5 μL of to-be-tested samples at different concentrations in each well, mixed evenly, and then added with 11 μL of to-be-tested samples at different concentrations in each well of the cell culture plate, and each sample had two wells. The culture plate was incubated in an incubator for 6 hours (37° C., […]). The 96-well cell culture plate was taken out, added with 100 μL of ONE-Glo™ reagent in each well, and incubated at room temperature for 10 minutes, and a chemiluminescence signal value was measured with an enzyme-labeled instrument. Data were processed and analyzed by Microsoft Excel and Graphpad Prism6 to obtain an EC50 value of the compound.

[2] = system: hGLP1R mice; test: Glucose tolerance test in hGLP1R mice after single oral administration; format: in vivo; details: 1 mg/kg oral once; for onset of blood glucose reduction compared with comparative example compound DB05 / blood glucose reduction effect compared with comparative example compound DB05: FIG. 1 and FIG. 2; for blood glucose reduction effect compared with PF-06882961: glucose 2 g/kg i.p. 60 minutes later; for blood glucose reduction effect compared with PF-06882961 / blood glucose reduction effect compared with comparative example compound DB05: blood glucose curves and AUC (0 to 120 minutes)
Procedure: Genetically engineered hGLP1R mice, male, purchased from Biocytogen Jiangsu Gene Biotechnology Co., Ltd., were fasted overnight before the glucose tolerance test (IPTGG), without water deprivation. A solvent or corresponding compound was orally administered once, a glucose solution (2 g/kg) was intraperitoneally injected 60 minutes after administration, and a blood glucose value before administration of glucose (equivalent to a blood glucose value of 0 minute) and blood glucose values 15 minutes, 30 minutes, 60 minutes and 120 minutes after administration of glucose were measured. The solvent was 5% DMSO+40% PEG400+55% physiological saline, and a dosage of the compound was 1 mg/kg (n=3).

Sequence of GLP1R (P43220 24-463): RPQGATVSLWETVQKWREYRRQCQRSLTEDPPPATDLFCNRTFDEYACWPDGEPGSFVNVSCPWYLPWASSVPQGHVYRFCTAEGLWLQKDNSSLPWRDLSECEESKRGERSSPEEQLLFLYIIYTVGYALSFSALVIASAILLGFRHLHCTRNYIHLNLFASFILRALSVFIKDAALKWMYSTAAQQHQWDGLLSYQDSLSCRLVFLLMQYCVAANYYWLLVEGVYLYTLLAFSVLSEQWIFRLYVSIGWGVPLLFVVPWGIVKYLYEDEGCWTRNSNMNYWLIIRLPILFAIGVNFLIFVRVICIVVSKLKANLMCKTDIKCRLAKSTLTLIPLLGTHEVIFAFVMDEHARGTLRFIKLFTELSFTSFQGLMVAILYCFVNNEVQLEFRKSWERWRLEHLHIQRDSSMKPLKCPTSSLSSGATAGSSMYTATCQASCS

Row | SMILES | EC50 [1] [nM] | activity compared with comparative example compounds PF-06882961, DB02, DB03 and DB06 [1] | onset of blood glucose reduction compared with comparative example compound DB05 [2] | blood glucose reduction effect compared with PF-06882961 [2] | blood glucose reduction effect compared with comparative example compound DB05 [2]
1 | O=C(O)c1ccc2nc(CC3CCN(c4cccc(OCc5ccc(Cl)c6ccoc56)n4)CC3)n(C[C@@H]3CCO3)c2c1 [Compound 1] | 114 |  |  |  | 
2 | O=C(O)c1ccc2nc(CC3=CCN(c4cccc(OCc5ccc(Cl)c6ccoc56)n4)CC3)n(C[C@@H]3CCO3)c2c1 [Compound 2] | 101 |  |  |  | 
3 | N#Cc1ccc(COc2cccc(N3CCC(Cc4nc5ccc(C(=O)O)cc5n4C[C@@H]4CCO4)CC3)n2)c2occc12 [Compound 3] | 65.1 |  |  |  | 
4 | O=C(O)c1ccc2nc(CN3CC=C(c4cccc(OCc5cccc6c5oc5ccccc56)n4)CC3)n(C[C@@H]3CCO3)c2c1 [Compound 13] | 13.6 | higher |  |  | 
5 | O=C(O)c1ccc2nc(CN3CC=C(c4cccc(OCc5cccc6c5oc5ccccc56)n4)CC3)n(C[C@@H]3CCO3)c2n1 [Compound 14] | 6.76 | higher |  |  | 
6 | O=C(O)c1ccc2nc(CC3CC=C(c4cccc(OCc5cccc6c5oc5ccccc56)n4)CC3)n(C[C@@H]3CCO3)c2c1 (stereo partly drawn) [Compound 15] | 25.8 |  |  |  | 
7 | N#Cc1ccc(COc2cccc(-c3ccc(Cc4nc5ccc(C(=O)O)cc5n4C[C@@H]4CCO4)c(F)c3)n2)c2occc12 [Compound 19] | 3.2 | higher | took effect more quickly | significantly better | significantly better
8 | O=C(O)c1ccc2nc(Cc3cc(F)c(-c4cccc(OCc5ccc(Cl)c6ccoc56)n4)cc3F)n(C[C@@H]3CCO3)c2c1 [Compound 25] | 11.5 | higher |  |  | 
9 | O=C(O)c1ccc2nc(Cc3ccc(-c4cccc(OCc5ccc(Cl)c6ccoc56)n4)cc3F)n(C[C@@H]3CCO3)c2n1 [Compound 38] | 7.53 | higher | took effect more quickly | significantly better | significantly better
10 | O=C(O)c1ccc2nc(Cc3ccc(-c4cccc(OCc5cccc6c5oc5ccccc56)n4)cc3F)n(C[C@@H]3CCO3)c2c1 [Compound 61] |  |  | took effect more quickly | significantly better | significantly better
11 | N#Cc1ccc(COc2cccc(-c3ccc(Cc4nc5ccc(C(=O)O)nc5n4C[C@@H]4CCO4)c(F)c3)n2)c2occc12 [Compound 67] | 1.97 | higher |  |  | 
12 | O=C(O)c1ccc2nc(Cc3ccc(-c4cccc(OCc5ccc(Cl)c6ccoc56)n4)cc3F)n(C[C@@H]3CCO3)c2c1F [Compound 91] | 0.76 | higher |  |  | 
13 | O=C(O)c1ccc2nc(Cc3ccc(-c4cccc(OCc5ccc(Cl)c6cc(F)oc56)n4)cc3F)n(C[C@@H]3CCO3)c2c1F [Compound 92] | 1.76 | higher |  |  | 
14 | O=C(O)c1ccc2nc(Cc3ccc(-c4nc(OCc5ccc(Cl)c6ccoc56)ccc4F)cc3F)n(C[C@@H]3CCO3)c2c1 [Compound 95] | 2.33 | higher |  |  | 
15 | O=C(O)c1ccc2nc(Cc3ccc(-c4nc(OCc5ccc(Cl)c6ccoc56)c(F)cc4F)cc3F)n(C[C@@H]3CCO3)c2c1 [Compound 96] | 3.02 | higher |  |  | 
16 | O=C(O)c1ccc2nc(Cc3ccc(-c4ccc(F)c(OCc5cccc6c5oc5ccccc56)n4)cc3F)n(C[C@@H]3CCO3)c2c1 [Compound 97] | 7.57 | higher |  |  | 
17 | O=C(O)c1ccc2nc(Cc3c(F)cc(-c4cccc(OCc5ccc(Cl)c6ccoc56)n4)cc3F)n(C[C@@H]3CCO3)c2c1 [Compound 101] | 0.69 | higher |  |  | 
18 | Cc1cc2c(Cl)ccc(COc3cccc(-c4ccc(Cc5nc6ccc(C(=O)O)cc6n5C[C@@H]5CCO5)c(F)c4)n3)c2o1 [Compound 102] | 9.1 | higher |  |  | 
19 | O=C(O)c1ccc2nc(Cc3ccc(-c4ccc(F)c(OCc5ccc(F)c6ccoc56)n4)cc3F)n(C[C@@H]3CCO3)c2c1 [Compound 103] | 1.17 | higher |  |  | 
20 | O=C(O)c1cc(F)c2nc(Cc3ccc(-c4cccc(OCc5ccc(Cl)c6ccoc56)n4)cc3F)n(C[C@@H]3CCO3)c2c1 [Compound 105] | 1.09 | higher |  |  | 
21 | O=C(O)c1ccc2nc(CC3CC=C(c4ccc(F)c(OCc5ccc(Cl)c6ccoc56)n4)CC3)n(C[C@@H]3CCO3)c2c1 (stereo partly drawn) [Compound 106] | 5.87 | higher |  | significantly better | 
22 | O=C(O)c1ccc2nc(CC3CC=C(c4ccc(F)c(OCc5ccc(Cl)c6cc(Cl)oc56)n4)CC3)n(C[C@@H]3CCO3)c2c1 (stereo partly drawn) [Compound 107] | 1.9 | higher |  | significantly better | 
23 | O=C(O)c1ccc2nc(CC3CC=C(c4cccc(OCc5ccc(Cl)c6cc(Cl)oc56)n4)CC3)n(C[C@@H]3CCO3)c2c1 (stereo partly drawn) [Compound 108] | 3.11 | higher |  |  | 
24 | O=C(O)c1ccc2nc(CN3CC=C(c4cccc(OCc5ccc(Cl)c6ccoc56)n4)CC3)n(C[C@@H]3CCO3)c2c1 [DB02, reference compound] | 13.6 |  |  |  | 
25 | COCCn1c(Cc2ccc(-c3cccc(OCc4ccc(C#N)c5ccoc45)n3)cc2F)nc2ccc(C(=O)O)cc21 [DB04, reference compound] | 275 |  |  |  | 
26 | COCCn1c(Cc2ccc(-c3cccc(OCc4ccc(Cl)c5ccoc45)n3)cc2F)nc2ccc(C(=O)O)cc21 [DB05, reference compound] | 312 |  |  |  | 
